# Patent publication US20250011368A1, “DLL3 TARGETING PEPTIDES AND CONSTRUCTS THEREOF” (MARIANA ONCOLOGY INC., priority 2023, published 2025)
# Numbered stars: 1 amine (or outer) side, 2 acyl side, 3 side chain; on linkers, the order of the positions; unused ones are H or OH. Bridge positions count the residues as written; N and C are the ends. Square brackets hold non-standard residues; d marks the D form. Side chains are listed from the residue outwards. Peptide text beside a SMILES is read from it. I, II: the chains in the order shown. * marks the point of attachment. X10 = C[N+](C)(CCNC(=O)CCOCCOCCOCCOCCOCCOCCOCCOCCNC(=O)CN1CCN(CC(=O)O)CCN(CC(=O)O)CCN(CC(=O)O)CC1)CC(=O)*; DOTA = O=C(O)CN1CCN(CC(=O)O)CCN(CC(=O)*)CCN(CC(=O)O)CC1; Trp(7-Me) = Cc1cccc2c(C[C@H](N)C(=O)O)c[nH]c12; PEG8 = NCCOCCOCCOCCOCCOCCOCCOCCOCCC(=O)O; X6 = C[C@@H]1CN([*:1])[C@@H]1C(=O)[*:2]; γGlu = O=C(O)[C@H](CCC(=O)[*:2])N[*:1]; 2Nal = N[C@@H](Cc1ccc2ccccc2c1)C(=O)O; X8 = CC1(C)CN([*:1])[C@@H]1C(=O)[*:2]; X12 = C[N+](C)(CCN[*:1])CC(=O)[*:2]; X7 = C[C@@]1(C(=O)[*:2])CCN1[*:1]; 3Pal = N[C@@H](Cc1cccnc1)C(=O)O; Lauroyl = CCCCCCCCCCCC(=O)*; Ahx = NCCCCCC(=O)O; Sar = CNCC(=O)O
# Molecular target: T1, human DLL3 (Homo sapiens, UniProt Q9NYJ7)
# T1 sequence (Q9NYJ7 27-618): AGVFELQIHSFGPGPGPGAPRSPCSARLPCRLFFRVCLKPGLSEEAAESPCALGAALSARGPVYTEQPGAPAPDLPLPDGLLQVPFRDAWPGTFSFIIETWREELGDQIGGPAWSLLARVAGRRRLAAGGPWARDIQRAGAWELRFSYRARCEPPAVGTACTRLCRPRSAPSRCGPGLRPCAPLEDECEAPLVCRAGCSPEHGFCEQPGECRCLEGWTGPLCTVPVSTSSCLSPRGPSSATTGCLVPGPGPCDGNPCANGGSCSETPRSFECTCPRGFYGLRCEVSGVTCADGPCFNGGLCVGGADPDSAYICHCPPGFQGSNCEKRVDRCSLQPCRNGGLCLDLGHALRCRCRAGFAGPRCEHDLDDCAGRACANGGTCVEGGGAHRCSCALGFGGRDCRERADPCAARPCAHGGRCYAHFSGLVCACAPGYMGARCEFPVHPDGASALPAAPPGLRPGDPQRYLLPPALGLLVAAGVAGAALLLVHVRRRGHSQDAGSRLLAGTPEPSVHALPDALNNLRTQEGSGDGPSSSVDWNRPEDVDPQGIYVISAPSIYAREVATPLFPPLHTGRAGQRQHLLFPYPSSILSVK
# Assay: Affinity determination by Surface Plasmon Resonance (SPR)
# Assay type: binding
# Details: not given
# Summary of the method: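 Kinetic and affinity constants were derived by fitting sensorgrams to a 1:1 binding model. Graded compound concentrations flowed at 100 μL/minute in 20 mM phosphate running buffer with 2% DMSO over streptavidin-immobilized biotinylated human DLL3, reference-subtracted.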
row,SMILES,Kd
1,"CC[C@H](C)[C@H](NC(=O)[C@@H](NC(=O)[C@H](Cc1c[nH]c2ccccc12)NC(C)=O)[C@@H](C)O)C(=O)N[C@H]1CSSC[C@@H](C(=O)N[C@@H](Cc2c[nH]c3ccccc23)C(=O)N2CCC[C@H]2C(=O)N[C@H](CCCCNC(=O)C[N+](C)(C)CCNC(=O)CCOCCOCCOCCOCCOCCOCCOCCOCCNC(=O)CN2CCN(CC(=O)O)CCN(CC(=O)O)CCN(CC(=O)O)CC2)C(N)=O)NC(=O)[C@H](CC(=O)O)NC(=O)[C@H](Cc2c[nH]cn2)NC(=O)[C@H](Cc2ccc3ccccc3c2)NC(=O)[C@H](CC(N)=O)NC(=O)[C@H](CC(N)=O)NC1=O [compound 363, Ac-W-T-I-C(3)-N-N-(2Nal)-H-D-C(3)-W-P-[D-Lys(SP6-PEG8-DOTA)]-NH2] (Ac-WTICNN[2Nal]HDCWP[dK](X10)-NH2; disulfide 4-10)",< 1 nM

# Same assay, conditions: 25° C., biotinylated human DLL3 immobilized on streptavidin sensor chip, 1:1 binding model; read-out: SPR KD
row,Kd,SMILES
1,< 1 nM,"CC[C@H](C)[C@H](NC(=O)[C@@H](NC(=O)[C@H](Cc1c[nH]c2ccccc12)NC(C)=O)[C@@H](C)O)C(=O)N[C@H]1CSSC[C@@H](C(=O)N[C@@H](Cc2c[nH]c3ccccc23)C(=O)N2C[C@@H](C)[C@H]2C(=O)N[C@H](CCCCNC(=O)CN2CCN(CC(=O)O)CCN(CC(=O)O)CCN(CC(=O)O)CC2)C(N)=O)NC(=O)[C@H](CC(=O)O)NC(=O)[C@H](Cc2c[nH]cn2)NC(=O)[C@H](Cc2ccc3ccccc3c2)NC(=O)[C@H](CC(N)=O)NC(=O)[C@H](CC(N)=O)NC1=O [compound 359, Ac-W-T-I-C(3)-N-N-(2Nal)-H-D-C(3)-W-R-3Me-Aze-[D-Lys(DOTA)]-NH2] (Ac-WTICNN[2Nal]HDCW[X6][dK](DOTA)-NH2; disulfide 4-10)"
2,< 1 nM,"CC[C@H](C)[C@H](NC(=O)[C@@H](NC(=O)[C@H](Cc1c[nH]c2ccccc12)NC(C)=O)[C@@H](C)O)C(=O)N[C@H]1CSSC[C@@H](C(=O)N[C@@H](Cc2c[nH]c3ccccc23)C(=O)N2CC[C@@]2(C)C(=O)N[C@H](CCCCNC(=O)CN2CCN(CC(=O)O)CCN(CC(=O)O)CCN(CC(=O)O)CC2)C(N)=O)NC(=O)[C@H](CC(=O)O)NC(=O)[C@H](Cc2c[nH]cn2)NC(=O)[C@H](Cc2ccc3ccccc3c2)NC(=O)[C@H](CC(N)=O)NC(=O)[C@H](CC(N)=O)NC1=O [compound 360, Ac-W-T-I-C(3)-N-N-(2Nal)-H-D-C(3)-W-aMe-Aze-[D-Lys(DOTA)]-NH2] (Ac-WTICNN[2Nal]HDCW[X7][dK](DOTA)-NH2; disulfide 4-10)"
3,< 1 nM,"CC[C@H](C)[C@H](NC(=O)[C@@H](NC(=O)[C@H](Cc1c[nH]c2ccccc12)NC(C)=O)[C@@H](C)O)C(=O)N[C@H]1CSSC[C@@H](C(=O)N[C@@H](Cc2c[nH]c3ccccc23)C(=O)N2CC(C)(C)[C@H]2C(=O)N[C@H](CCCCNC(=O)CN2CCN(CC(=O)O)CCN(CC(=O)O)CCN(CC(=O)O)CC2)C(N)=O)NC(=O)[C@H](CC(=O)O)NC(=O)[C@H](Cc2c[nH]cn2)NC(=O)[C@H](Cc2ccc3ccccc3c2)NC(=O)[C@H](CC(N)=O)NC(=O)[C@H](CC(N)=O)NC1=O [compound 362, Ac-W-T-I-C(3)-N-N-(2Nal)-H-D-C(3)-W-3Me2-Aze-[D-Lys(DOTA)]-NH2] (Ac-WTICNN[2Nal]HDCW[X8][dK](DOTA)-NH2; disulfide 4-10)"
4,< 1 nM,"CC[C@H](C)[C@H](NC(=O)[C@@H](NC(=O)[C@H](Cc1c[nH]c2ccccc12)NC(C)=O)[C@@H](C)O)C(=O)N[C@H]1CSSC[C@@H](C(=O)N[C@@H](Cc2c[nH]c3ccccc23)C(=O)N2CCC[C@H]2C(=O)NCC[N+](C)(C)CC(=O)NCCOCCOCCOCCOCCOCCOCCOCCOCCC(=O)N[C@H](CCCCNC(=O)CN2CCN(CC(=O)O)CCN(CC(=O)O)CCN(CC(=O)O)CC2)C(N)=O)NC(=O)[C@H](CC(=O)O)NC(=O)[C@H](Cc2c[nH]cn2)NC(=O)[C@H](Cc2ccc3ccccc3c2)NC(=O)[C@H](CC(N)=O)NC(=O)[C@H](CC(N)=O)NC1=O [compound 364, Ac-W-T-I-C(3)-N-N-(2Nal)-H-D-C(3)-W-P-SP6-PEG8-[D-Lys(DOTA)]-NH2] (Ac-WTICNN[2Nal]HDCWP[X12][PEG8][dK](DOTA)-NH2; disulfide 4-10)"
5,< 1 nM,"CC[C@H](C)[C@H](NC(=O)[C@@H](NC(=O)[C@H](Cc1c[nH]c2ccccc12)NC(C)=O)[C@@H](C)O)C(=O)N[C@H]1CSSC[C@@H](C(=O)N[C@@H](Cc2c[nH]c3ccccc23)C(=O)N2CCC[C@H]2C(=O)N[C@H](CCCCNC(=O)CN2CCN(CC(=O)O)CCN(CC(=O)O)CCN(CC(=O)O)CC2)C(N)=O)NC(=O)[C@H](CC(=O)O)NC(=O)[C@H](Cc2cccnc2)NC(=O)[C@H](Cc2ccc3ccccc3c2)NC(=O)[C@H](CC(N)=O)NC(=O)[C@H](CC(N)=O)NC1=O [compound 366, Ac-W-T-I-C(3)-N-N-(2Nal)-(3Pya)-D-C(3)-W-P-[D-Lys(DOTA)]-NH2] (Ac-WTICNN[2Nal][3Pal]DCWP[dK](DOTA)-NH2; disulfide 4-10)"
6,1 to 10 nM,"CCCCCCCCCCCC(=O)NCCCC[C@@H]1NC(=O)[C@H](Cc2ccc3ccccc3c2)NC(=O)[C@H](CC(N)=O)NC(=O)[C@H](CC(N)=O)NC(=O)[C@@H](NC(=O)[C@@H](NC(=O)[C@@H](NC(=O)[C@H](Cc2c[nH]c3ccccc23)NC(C)=O)[C@@H](C)O)[C@@H](C)CC)CSSC[C@@H](C(=O)N[C@@H](Cc2c[nH]c3ccccc23)C(=O)N2CCC[C@H]2C(=O)N[C@H](CCCCNC(=O)CC[C@H](NC(=O)CC[C@H](NC(=O)CC[C@H](NC(=O)CN2CCN(CC(=O)O)CCN(CC(=O)O)CCN(CC(=O)O)CC2)C(=O)O)C(=O)O)C(=O)O)C(N)=O)NC(=O)[C@H](CC(=O)O)NC1=O [compound 368, Ac-W-T-I-C(3)-N-N-(2Nal)-K(C12)-D-C(3)-W-P-[D-Lys(gE-gE-gE-DOTA)]-NH2] (Ac-WTICNN[2Nal]K(Lauroyl)DCWP[dK]([γGlu-γGlu-γGlu-DOTA])-NH2; disulfide 4-10)"
7,1 to 10 nM,"CCCCCCCCCCCC(=O)NCCCC[C@@H]1NC(=O)[C@H](Cc2ccc3ccccc3c2)NC(=O)[C@H](CC(N)=O)NC(=O)[C@H](CC(N)=O)NC(=O)[C@@H](NC(=O)[C@@H](NC(=O)[C@@H](NC(=O)[C@H](Cc2c[nH]c3c(C)cccc23)NC(C)=O)[C@@H](C)O)[C@@H](C)CC)CSSC[C@@H](C(=O)N[C@@H](Cc2c[nH]c3ccccc23)C(=O)N2CCC[C@H]2C(=O)N[C@H](CCCCNC(=O)CN2CCN(CC(=O)O)CCN(CC(=O)O)CCN(CC(=O)O)CC2)C(N)=O)NC(=O)[C@H](CC(=O)O)NC1=O [compound 369, Ac-(7Me-W)-T-I-C(3)-N-N-(2Nal)-H-D-C(3)-W-P-[D-Lys(DOTA)]-NH2] (Ac-[Trp(7-Me)]TICNN[2Nal]K(Lauroyl)DCWP[dK](DOTA)-NH2; disulfide 4-10)"
8,< 1 nM,"CC[C@H](C)[C@H](NC(=O)[C@@H](NC(=O)[C@H](Cc1c[nH]c2ccccc12)NC(C)=O)[C@@H](C)O)C(=O)N[C@H]1CSSC[C@@H](C(=O)N[C@@H](Cc2c[nH]c3ccccc23)C(=O)N2CCC[C@H]2C(=O)N(C)CC(=O)N(C)CC(=O)N(C)CC(=O)N(C)CC(=O)N(C)CC(=O)N[C@H](CCCCNC(=O)CN2CCN(CC(=O)O)CCN(CC(=O)O)CCN(CC(=O)O)CC2)C(N)=O)NC(=O)[C@H](CC(=O)O)NC(=O)[C@H](Cc2cnc[nH]2)NC(=O)[C@H](Cc2ccc3ccccc3c2)NC(=O)[C@H](CC(N)=O)NC(=O)[C@H](CC(N)=O)NC1=O [compound 371, Ac-W-T-I-C(3)-N-N-(2Nal)-H-D-C(3)-W-P-(Sar)5-[D-Lys(DOTA)]-NH2] (Ac-WTICNN[2Nal]HDCWP[Sar][Sar][Sar][Sar][Sar][dK](DOTA)-NH2; disulfide 4-10)"
9,< 1 nM,"CC[C@H](C)[C@H](NC(=O)[C@@H](NC(=O)[C@H](Cc1c[nH]c2ccccc12)NC(C)=O)[C@@H](C)O)C(=O)N[C@H]1CSSC[C@@H](C(=O)N[C@@H](Cc2c[nH]c3ccccc23)C(=O)N2CCC[C@H]2C(=O)NCCCCCC(=O)NCCCCCC(=O)N[C@H](CCCCNC(=O)CN2CCN(CC(=O)O)CCN(CC(=O)O)CCN(CC(=O)O)CC2)C(N)=O)NC(=O)[C@H](CC(=O)O)NC(=O)[C@H](Cc2cnc[nH]2)NC(=O)[C@H](Cc2ccc3ccccc3c2)NC(=O)[C@H](CC(N)=O)NC(=O)[C@H](CC(N)=O)NC1=O [compound 372, Ac-W-T-I-C(3)-N-N-(2Nal)-H-D-C(3)-W-P-(Ahx)2-[D-Lys(DOTA)]-NH2] (Ac-WTICNN[2Nal]HDCWP[Ahx][Ahx][dK](DOTA)-NH2; disulfide 4-10)"

row,SMILES,Kd
1,"CC[C@H](C)[C@H](NC(=O)[C@@H](NC(=O)[C@H](Cc1c[nH]c2ccccc12)NC(C)=O)[C@@H](C)O)C(=O)N[C@H]1CSSC[C@@H](C(=O)N[C@@H](Cc2c[nH]c3ccccc23)C(=O)N2CCC[C@H]2C(=O)N[C@H](CCCCNC(=O)CNC(=O)CNC(=O)[C@H](CO)NC(=O)CNC(=O)CNC(=O)[C@H](CO)NC(=O)CN2CCN(CC(=O)O)CCN(CC(=O)O)CCN(CC(=O)O)CC2)C(N)=O)NC(=O)[C@H](CC(=O)O)NC(=O)[C@H](Cc2c[nH]cn2)NC(=O)[C@H](Cc2ccc3ccccc3c2)NC(=O)[C@H](CC(N)=O)NC(=O)[C@H](CC(N)=O)NC1=O [compound 365, Ac-W-T-I-C(3)-N-N-(2Nal)-H-D-C(3)-W-P-[D-Lys(G-G-S-G-G-S-DOTA)]-NH2] (I: Ac-WTICNN[2Nal]HDCWP[dK]-NH2 / II: {DOTA}-SGGSGG; disulfide I:4-I:10; amide I:13-II:C)",< 1 nM
